Reference: patent US8710224B2, “Heterocyclic compounds as CCR2B antagonists” (AstraZeneca AB, priority 2004, dated 2014)

Molecular target: T1, recombinant human CCR5 receptor (Homo sapiens, UniProt P51681)
T1 construct: expressed in transfected cells; host or cells: Chinese hamster ovary (CHO) cells; membranes
Experiment: Radioligand binding assay for inhibition of the binding of MIP-1α
Details: displacement of 0.1 nM iodinated MIP-1α; membranes of Chinese hamster ovary cells expressing CCR5
Experimental: Biological Assay for the Ability of Compounds to Inhibit the Binding of MIP-1α This ability is assessed using an in vitro radioligand binding assay. Membranes are prepared from Chinese hamster ovary cells which express the recombinant human CCR5 receptor. These membranes are incubated with 0.1 nM iodinated MIP-1α, scintillation proximity beads and various concentrations of the compounds of the invention in 96-well plates. The amount of iodinated MIP-1α bound to the receptor is then determined by scintillation counting.

T1 sequence (P51681 whole entry): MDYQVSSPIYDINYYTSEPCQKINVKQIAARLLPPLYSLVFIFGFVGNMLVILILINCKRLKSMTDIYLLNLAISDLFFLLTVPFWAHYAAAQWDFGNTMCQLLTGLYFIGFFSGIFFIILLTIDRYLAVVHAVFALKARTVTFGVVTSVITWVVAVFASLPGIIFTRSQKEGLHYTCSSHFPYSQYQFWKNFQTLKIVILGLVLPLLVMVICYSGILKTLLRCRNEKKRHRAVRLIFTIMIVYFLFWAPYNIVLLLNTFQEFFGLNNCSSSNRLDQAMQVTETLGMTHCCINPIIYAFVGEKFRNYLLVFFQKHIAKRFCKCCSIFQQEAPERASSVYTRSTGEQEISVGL

| Structure (SMILES) | IC50 [µM] |
| --- | --- |
| O=C(Nc1ccc(Cl)c(Cl)c1)N1CCN(C[C@@H]2CCCN(CC(c3ccccc3)c3ccccc3)C2)CC1 [Example 153, N-(3,4-Dichlorophenyl)-4-{[(3R)-1-(2,2-diphenylethyl)piperidin-3-yl]methyl}piperazine-1-carboxamide] | < 10 |
| N#C/N=C(\Nc1ccc(Cl)c(Cl)c1)N1CCN(C[C@@H]2CCCN(CCc3ccccc3)C2)CC1 [Example 79, N-cyano-N-(3,4-dichlorophenyl)-4-{[(3R)-1-(2-phenylethyl)piperidin-3-yl]methyl}piperazine-1-carboximidamide] | < 10 |
| O=C(Nc1ccc(Cl)c(Cl)c1)N1CCN(C[C@@H]2CCCN(Cc3c[nH]nc3-c3ccccc3)C2)CC1 [Example 200, N-(3,4-Dichlorophenyl)-4-({(3R)-1-[(3-phenyl-1H-pyrazol-4-yl)methyl]piperidin-3-yl}methyl)piperazine-1-carboxamide] | < 10 |
| CN1CCCC(CN2CCN(C(=O)Nc3ccccc3)CC2)C1 (stereo not drawn) [Example 1, 4-[(1-methylpiperidin-3-yl)methyl]-N-phenylpiperazine-1-carboxamide] | < 10 |
| C[C@@H](Cc1ccc(F)cc1)N1CCO[C@@H](CN2CCN(C(=O)Nc3ccc(F)c(Cl)c3)CC2)C1 [Example 233, N-(3-chloro-4-fluorophenyl)-4-({(2S)-4-[(1S)-2-(4-fluorophenyl)-1-methylethyl]morpholin-2-yl}methyl)piperazine-1-carboxamide] | < 10 |
| CS(=O)(=O)N1CCC(N2CCC[C@@H](CN3CCN(C(=O)Nc4ccc(Cl)c(Cl)c4)CC3)C2)CC1 [Example 176, N-(3,4-Dichlorophenyl)-4-{[(3S)-1′-(methylsulfonyl)-1,4′-bipiperidin-3-yl]methyl}piperazine-1-carboxamide] | < 10 |
| CS(=O)(=O)c1ccc(CN2CCC[C@@H](CN3CCN(C(=O)Nc4ccc(Cl)c(Cl)c4)CC3)C2)c(Cl)c1 [Example 322, 4-({(3R)-1-[2-Chloro-4-(methylsulfonyl)benzyl]piperidin-3-yl}methyl)-N-(3,4-dichlorophenyl)piperazine-1-carboxamide] | < 10 |
| O=C(Nc1ccc(Cl)c(Cl)c1)N1CCN(C[C@@H]2CCN([C@H]3CC[C@](O)(c4nccs4)CC3)C2)CC1 [Example 229, N-(3,4-dichlorophenyl)-4-({(3S)-1-[cis-4-hydroxy-4-(1,3-thiazol-2-yl)cyclohexyl]pyrrolidin-3-yl}methyl)piperazine-1-carboxamide] | < 10 |
| Cc1nn(C)cc1CN1CCC[C@@H](CN2CCN(C(=O)Nc3ccc(Cl)c(Cl)c3)CC2)C1 [Example 197, N-(3,4-Dichlorophenyl)-4-({(3R)-1-[(1,3-dimethyl-1H-pyrazol-4-yl)methyl]piperidin-3-yl}methyl)piperazine-1-carboxamide] | < 10 |
| O=C(Nc1ccc(Cl)c(Cl)c1)N1CCN(C(=O)[C@H]2CN(C3CCC3)CCN2)CC1 [Example 275, 4-{[(2R)-4-Cyclobutylpiperazin-2-yl]carbonyl}-N-(3,4-dichlorophenyl)piperazine-1-carboxamide] | < 10 |
| COCCOc1ccc(CN2CCC[C@@H](CN3CCN(C(=O)Nc4ccc(Cl)c(Cl)c4)CC3)C2)cn1 [Example 258, N-(3,4-dichlorophenyl)-4-[((3R)-1-{[6-(2-methoxyethoxy)pyridin-3-yl]methyl}piperidin-3-yl)methyl]piperazine-1-carboxamide] | < 10 |
| CC(=O)N1CCC(N2CCC[C@@H](CN3CCN(C(=O)Nc4ccc(Cl)c(Cl)c4)CC3)C2)CC1 [Example 175, 4-{[(3S)-1′-Acetyl-1,4′-bipiperidin-3-yl]methyl}-N-(3,4-dichlorophenyl)piperazine-1-carboxamide] | < 10 |
| O=C(Nc1ccc(Cl)c(Cl)c1)N1CCN(C(=O)C2CCN([C@H]3CC[C@](O)(c4ccccn4)CC3)C2)CC1 (stereo partly drawn) [Example 146, N-(3,4-dichlorophenyl)-4-{[1-(4-hydroxy-4-pyridin-2-ylcyclohexyl)pyrrolidin-3-yl]carbonyl}piperazine-1-carboxamide] | < 10 |
| O=C(Nc1ccc(Cl)c(Cl)c1)N1CCN(C(=O)[C@H]2CN(C3CCCC3)CCN2)CC1 [Example 276, 4-{[(2R)-4-Cyclopentylpiperazin-2-yl]carbonyl}-N-(3,4-dichlorophenyl)piperazine-1-carboxamide] | < 10 |
| O=C(Nc1ccc(Cl)c(Cl)c1)N1CCN(C[C@@H]2CCCN(CCC3CCOCC3)C2)CC1 [Example 203, N-(3,4-Dichlorophenyl)-4-({(3R)-1-[2-(tetrahydro-2H-pyran-4-yl)ethyl]piperidin-3-yl}methyl)piperazine-1-carboxamide] | < 10 |
| O=C(Nc1cccc(C(F)(F)F)c1)N1CCN(C[C@@H]2CCCN(C3CC3)C2)CC1 [Example 109, 4-{[(3S)-1-cyclopropylpiperidin-3-yl]methyl}-N-[3-(trifluoromethyl)phenyl]piperazine-1-carboxamide] | < 10 |
| CC(C)N1CCN[C@@H](C(=O)N2CCN(C(=O)Nc3ccc(Cl)c(F)c3)CC2)C1 [Example 265, N-(4-Chloro-3-fluorophenyl)-4-{[(2R)-4-isopropylpiperazin-2-yl]carbonyl}piperazine-1-carboxamide] | < 10 |

| Structure (SMILES) | IC50 [µM] |
| --- | --- |
| O=C(Nc1ccc(Cl)c(Cl)c1)N1CCN(C[C@@H]2CCCN(C3CCOCC3)C2)CC1 [Example 172, N-(3,4-Dichlorophenyl)-4-{[(3S)-1-(tetrahydro-2H-pyran-4-yl)piperidin-3-yl]methyl}piperazine-1-carboxamide] | < 10 |
| CC(C)N1CCO[C@@H](CN2CCN(C(=O)Nc3ccc(C(F)(F)F)nc3)CC2)C1 [Example 192, 4-{[(2S)-4-isopropylmorpholin-2-yl]methyl}-N-[6-(trifluoromethyl)pyridin-3-yl]piperazine-1-carboxamide] | < 10 |
| CC(C)(C)c1cc(NC(=O)N2CCN(C[C@@H]3CCCN(C4CC4)C3)CC2)no1 [Example 112, N-(5-tert-butylisoxazol-3-yl)-4-{[(3S)-1-cyclopropylpiperidin-3-yl]methyl}piperazine-1-carboxamide] | < 10 |
| O=C(Nc1ccc(Cl)c(Cl)c1)N1CCN(C[C@H]2CN(C3CCC(O)CC3)CCO2)CC1 (stereo partly drawn) [Example 122, N-(3,4-dichlorophenyl)-4-{[(2S)-4-(4-hydroxycyclohexyl)morpholin-2-yl]methyl}piperazine-1-carboxamide] | < 10 |
| O=C(Nc1ccc(Cl)c(Cl)c1)N1CCN(C[C@H]2CCN([C@H]3CC[C@H](O)CC3)C2)CC1 [Example 232, N-(3,4-dichlorophenyl)-4-{[(3R)-1-(trans-4-hydroxycyclohexyl)pyrrolidin-3-yl]methyl}piperazine-1-carboxamide] | < 10 |
| O=C(Nc1ccc(Cl)c(Cl)c1)N1CCN(C[C@@H]2CCCN(Cc3ccc(Cl)nc3)C2)CC1 [Example 256, 4-({(3R)-1-[(6-chloropyridin-3-yl)methyl]piperidin-3-yl}methyl)-N-(3,4-dichlorophenyl)piperazine-1-carboxamide] | < 10 |
| CCC(C)N1CCN[C@@H](C(=O)N2CCN(C(=O)Nc3ccc(Cl)c(Cl)c3)CC2)C1 (stereo partly drawn) [Example 220, 4-{[(2R)-4-sec-butylpiperazin-2-yl]carbonyl}-N-(3,4-dichlorophenyl)piperazine-1-carboxamide] | < 10 |
| CS(=O)(=O)c1ccc(CCCN2CCC[C@@H](CN3CCN(C(=O)Nc4cccc(Cl)c4)CC3)C2)cc1 [Example 327, N-(3-Chlorophenyl)-4-[((3R)-1-{3-[4-(methylsulfonyl)phenyl]propyl}piperidin-3-yl)methyl]piperazine-1-carboxamide] | < 10 |
| O=C(Nc1ccccc1)N1CCN(CC2CCCN(C3CC3)C2)CC1 (stereo in doubt) [Example 183, N-Phenyl-4-{[(3R)-1-(2-cyclopropyl)piperidin-3-yl]methyl}piperazine-1-carboxamide] | < 10 |
| COc1ccc(CN2CCC[C@@H](CN3CCN(C(=O)Nc4ccc(Cl)c(Cl)c4)CC3)C2)cc1 [Example 47, N-(3,4-dichlorophenyl)-4-{[(3R)-1-(4-methoxybenzyl)piperidin-3-yl]methyl}piperazine-1-carboxamide] | < 10 |
| Cc1ccc(NC(=O)N2CCN(CC3CCCN(C)C3)CC2)cc1Cl (stereo not drawn) [Example 26, N-(3-chloro-4-methylphenyl)-4-[(1-methylpiperidin-3-yl)methyl]piperazine-1-carboxamide] | < 10 |
| O=C(Nc1ccc(Cl)c(Cl)c1)N1CCN(C[C@@H]2CCCN(C3CCC(O)CC3)C2)CC1 (stereo partly drawn) [Example 145, N-(3,4-dichlorophenyl)-4-{[(3S)-1-(4-hydroxycyclohexyl)piperidin-3-yl]methyl}piperazine-1-carboxamide] | < 10 |
| O=C(Nc1ccc(Cl)c(Cl)c1)N1CCN(C[C@@H]2CCCN(CCOc3ccc(F)cc3)C2)CC1 [Example 171, N-(3,4-Dichlorophenyl)-4-({(3S)-1-[2-(4-fluorophenoxy)ethyl]piperidin-3-yl}methyl)piperazine-1-carboxamide] | < 10 |
| CS(=O)(=O)c1ccc(CCCN2CCC[C@@H](CN3CCN(C(=O)Nc4ccccc4)CC3)C2)cc1 [Example 254, 4-[[(3R)-1-[3-(4-methylsulfonylphenyl)propyl]-3-piperidyl]methyl]-N-phenyl-piperazine-1-carboxamide] | < 10 |
| O=C(Nc1ccc(Cl)c(Cl)c1)N1CCN(C(=O)C2CCN([C@H]3CC[C@](O)(c4ccncc4)CC3)C2)CC1 (stereo partly drawn) [Example 147, N-(3,4-dichlorophenyl)-4-{[1-(cis-4-hydroxy-4-pyridin-4-ylcyclohexyl)pyrrolidin-3-yl]carbonyl}piperazine-1-carboxamide] | < 10 |
| CN1CCN[C@@H](C(=O)N2CCN(C(=O)Nc3ccc(Cl)c(Cl)c3)CC2)C1 [Example 210, N-(3,4-Dichlorophenyl)-4-{[(2R)-4-methylpiperazin-2-yl]carbonyl}piperazine-1-carboxamide] | < 10 |
